Results taken from patent publication US12721835B2, “Anticoccidial composition comprising violacein, and use thereof” (CJ CHEILJEDANG CORPORATION, priority 2020, dated 2026).

What was measured:
Eimeria tenella [1] = test: In vivo anticoccidial activity upon single inoculation (broilers, formulated feed); design: key to ACI: ACI out of 200 = survival% + RWG% − lesion×10 − oocyst index; settings: Eimeria tenella infection, feed 1 ppm
Experimental: An in vivo anticoccidial efficacy evaluation test was performed in an animal experiment facility in Gyeongsangnam-do, South Korea. One-day-old female Ross broilers were individually weighed and randomly divided into groups to use in an experiment. Matters and conditions for experimental design were described in Table 2.
A breeding farm was managed according to the Korean poultry breeding management guidelines. Cages and the breeding farm were cleaned and disinfected before starting the test. The temperature of […] and the humidity of 40 to 50% of the breeding farm were maintained, and it was continuously monitored.
For the feed, Korea Feed Al-choi product was used, and each material (diclazuril (Yuhan Corporation YUHAN DICLA product), salinomycin (Cheil Bio Cheilsalino-60 product), violacein (CJ Cheiljedang)) was added to the feed, respectively, at a concentration described in Table 3 below to be self-mixed. Antibiotics and supplements were not used in general feed and mixed feed, and no anticoccidial agent other than each material was added. Broilers were fed ad libitum throughout the experiment period. After putting 15 1-day-age broilers in cages randomly placed for each of the control group or test group and breeding, general feed (Al-choi product) was fed for 7 days, and then the mixed feed prepared above was ingested by dividing by control group or test group. The non-infected negative control group used 1cage, and the infected negative control group and experimental group used 2cage to progress the experiment.
The feed formulation administered to the control group (negative control group or positive control group) and test group and whether coccidiosis was induced by Eimeria tenella were described in Table 3 below.
14-day-old broilers were orally inoculated with 10,000 oocysts (90% sporulated Eimeria tenella oocysts) per individual to induce coccidiosis.
The anticoccidial efficacy by test group designed in Example 1-2 above was shown as an anticoccidial index (ACI), and the anticoccidial index was calculated by Equation 2 below. The ACI score is out of 200 points, and the higher the ACI score, the more excellent the anticoccidial ability, and when it is 120 points or more to less than 140 points, it is determined that it is effective as an anticoccidial material, and when it is 140 points or more to less than 160 points, it is determined that it is excellent as an anticoccidial material, and when it is 160 points or more, it is determined that the anticoccidial effect is very excellent (Luis Miguel De Pablos et al., Anticoccidial activity of maslinic acid against infection with Eimeria tenella in chickens, Parasitol Res, 2010). Anticoccidial index (ACI)=(survival rate after challenge inoculation(%))+(daily weight gain compared to negative control group (RWG,%))−(lesion score×10)−(fecal oocyst excretion amount index) (Equation 2) • 1) Survival rate: the number of dead individuals was recorded daily, and post mortem autopsy was performed to determine a cause of mortality, and the number of individuals who died due to causes other than coccidiosis was excluded. The survival rate (%) up to the 8th day after challenge inoculation was used for anticoccidial index calculation. The measured survival rate was described in Table 4 below. • 2) Daily weight gain: body weight was measured for each cage before challenge inoculation with a protozoan into an individual and at the 7th day after challenge inoculation, and the difference was divided by the number of days to calculate the daily weight gain (ADG, g/d). ‘Daily weight gain compared to the negative control group (RWG, %)’ which was calculated by dividing the daily weight gain (ADG, average daily gain; g/d) of each experimental group by the weight gain (ADG, g/d) of the non-infected negative control group and multiplying by 100 was used for anticoccidial index calculation. […]

Eimeria tenella [2] = test: Cell invasion inhibition of protozoa in MDBK cells (ITS-1 PCR); assay type: cell-based; settings: MDBK cells, 41° C. 24 hours, read-out: Cell invasion inhibitory effect of protozoa (%)
Experimental: (§1) In the present example, using MDBK cell line which is a representative animal cell known to cause Eimeria infection and propagation, the inhibition ability of intracellular protozoan invasion and intracellular protozoal propagation of the violacein was investigated.
100,000 MDBK cells (purchased from ATCC) were aliquoted in a 24-well plate, and then incubated at a temperature of 37° C. for 12 hours. The protozoan of Eimeria tenella was obtained similar to the method of Example 3 above. 200,000 protozoa per one well were added to wells in which cells were aliquoted, and each material (violacein and anticoccidial agents, salinomycin, diclazuril and gallic acid) was treated to the cells by concentration, and cultured at a temperature of 41° C. for 24 hours. A negative control group is a MDBK cell infected by protozoa of Eimeria tenella, and a positive control group means a group in which salinomycin, diclazuril or gallic acid solution was incubated with the Eimeria tenella protozoan. […] After removing the cells and protozoa inside the cells through pipetting, DNA was extracted from the cells, and PCR was performed using E. tenella ITS-1 (Internal transcribed spacer-1) gene-specific primers. The sequences of the used primers were described in Table 9 below.
Ct values before/after washing for each material were compared and corrected with the ΔCt value of the negative control group to calculate the cell invasion inhibition rate (%) of the protozoa through treatment of each material, and the result was shown in FIG. 3 and Table 10 below.

Eimeria acervulina = test: Protozoan (sporozoite) direct killing effect; assay type: cell-based; settings: tested 1 to 500 ppm, vs PBS control
Experimental: (§2) In the present example, protozoan (sporozoite) direct killing ability evaluation was conducted against 3 representative Eimeria kinds known to be infected in most farms (E. tenella, E. acervulina, E. maxima).
(§3) A certain amount of oocysts of each coccidial protozoan was put in a tube containing glass beads and pulverized, and then to remove the crushed oocyst cell wall and other debris, internal sporocysts were purified using the percoll density gradient, and washed with PBS solution. A reagent comprising sodium taurocholic acid (Sigma aldrich, USA) and trypsin (Gibco, USA), respectively, was treated to sporocysts of Eimeria tenella, Eimeria acervulina and Eimeria maxima for excystation of the internal sporozoites, and they were incubated, and then they were washed with PBS solution once and the protozoa were obtained.
(§4) After reacting the violacein and anticoccidial agents, salinomycin, diclazuril and gallic acid (hereinafter, material) with 3 kinds of Eimeria protozoa at various concentrations of 1 to 500 ppm, respectively, only alive protozoa (sporozoites) were counted through microscopic observation. […]

Eimeria maxima = test: Protozoan (sporozoite) direct killing effect; assay type: cell-based; settings: tested 1 to 500 ppm, vs PBS control
Experimental: as §2, §3, §4

Eimeria tenella [3] = test: Protozoan (sporozoite) direct killing effect; assay type: cell-based; settings: tested 1 to 500 ppm, vs PBS control
Experimental: as §2, §3, §4

Eimeria tenella [4] = test: Intracellular protozoan propagation inhibition in MDBK cells (ITS-1 PCR); assay type: cell-based; settings: MDBK cells, treated after invasion, 24 hours, read-out: Intracellular protozoan propagation inhibitory effect (%)
Experimental: as §1
100,000 MDBK cells (purchased from ATCC) were aliquoted in a 24-well plate, and then incubated at a temperature of 37° C. for 12 hours. The protozoan of Eimeria tenella was obtained similar to the method of Example 3 above. 200,000 protozoa per one well were added to wells in which cells were aliquoted, and cultured at a temperature of 41° C. for 24 hours, and then the cells were washed using PBS solution twice to remove protozoa which were not attached to the cells. Each material (violacein and anticoccidial agents, salinomycin, diclazuril and gallic acid) was treated to the cells by concentration, and further cultured at a temperature of 41° C. for 24 hours. A negative control group is a MDBK cell infected by protozoa, and a positive control group means a group in which salinomycin and diclazuril solution was incubated with the Eimeria tenella protozoan. After removing the cells and protozoa inside the cells through pipetting, DNA was extracted from the cells, and PCR was performed using E. tenella ITS-1 (Internal transcribed spacer-1) gene-specific primers. The sequences of the used primers were described in Table 9 above.
The intracellular protozoan propagation inhibition rate (%) through treatment of the material was calculated by comparing Ct values in the material treatment groups compared to the negative control group, and the result was shown in FIG. 3 and Table 10.

SMILES	ADG(g/d) after challenge inoculation (Eimeria tenella [1])	Oocyst index (Eimeria tenella [1])	Lesion score (Eimeria tenella [1]; appendix, scale 0-4, 8th day)	Oocyst excretion amount/g (Eimeria tenella [1]; feces day 6-8)	Lesion index (Eimeria tenella [1]; lesion score x 10)	ACI (Eimeria tenella [1]; out of 200 points)	Survival rate after challenge inoculation (%) (Eimeria tenella [1]; up to 8th day)	RWG(%) (Eimeria tenella [1]; vs non-infected negative control)	inhibition at 0.5 ppm (Eimeria tenella [2]; 0.5 ppm)	inhibition at 1 ppm (Eimeria tenella [2]; 1 ppm)	Minimum concentration for killing 50% protozoa (sporozoites) (ppm) (Eimeria acervulina)	Minimum concentration for killing 50% protozoa (sporozoites) (ppm) (Eimeria maxima)	Minimum concentration for killing 50% protozoa (sporozoites) (ppm) (Eimeria tenella [3])	inhibition at 0.5 ppm (Eimeria tenella [4]; 0.5 ppm)	inhibition at 1 ppm (Eimeria tenella [4]; 1 ppm)	inhibition at 5 ppm (Eimeria tenella [2]; 5 ppm)	inhibition at 10 ppm (Eimeria tenella [2]; 10 ppm)	inhibition at 5 ppm (Eimeria tenella [4]; 5 ppm)	inhibition at 10 ppm (Eimeria tenella [4]; 10 ppm)
N#CC(c1ccc(Cl)cc1)c1c(Cl)cc(-n2ncc(=O)[nH]c2=O)cc1Cl (stereo not shown) [Diclazuril, diclazuril, reference compound]	61 g/day	10	1.7	1.3e+08 g⁻¹	17	169	100%	96%	0%	6.3%	500 ppm	>500 ppm	>500 ppm	45.9%	52.9%				
O=C(O)c1cc(O)c(O)c(O)c1 [Gallic acid, gallic acid]											>500 ppm	>500 ppm	>500 ppm			76%	90.1%	0%	0%
